Measured values taken from patent publication US6825230B2, “Spiro and dispiro 1,2,4-trixolane antimalarials” (Medicines for Malaria Venture MMV, priority 2002, dated 2004).
≈ marks a conversion by molar mass, not a printed value. Read-outs that look alike come from different tables or passages of the source.

Experiments:
[1] = tested on: chloroquine-resistant K1 strain of P. falciparum; assay: In vitro antimalarial semiautomated microdilution assay ([3H]-hypoxanthine incorporation), K1 strain; assay type: cell-based, Plasmodium falciparum; settings: Plasmodium falciparum
In short: (§1)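 IC50 values come from Logit regression of [3H]-hypoxanthine uptake data. Parasites were intraerythrocytic P. falciparum forms taken from asynchronous stock cultures and tested by semiautomated microdilution.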

[2] = tested on: chloroquine-sensitive NF54 strain of P. falciparum; assay: In vitro antimalarial semiautomated microdilution assay ([3H]-hypoxanthine incorporation), NF54 strain; assay type: cell-based, Plasmodium falciparum; settings: Plasmodium falciparum
In short: as §1

[3] = tested on: ANKA strain of P. berghei; assay: Single dose STI in vivo screen in infected mice; design: species or system Plasmodium berghei; settings: for Survival (days) 10 mg/kg po: single 10 mg/kg po in 3% ethanol and 7% Tween 80; for Survival (days) 10 mg/kg po / Survival (days) 10 mg/kg SSV po / Survival (days) 10 mg/kg sc: untreated 6-7 days; for Activity (%) 10 mg/kg po: single 10 mg/kg po in 3% ethanol and 7% Tween 80 on day 1 post-infection; for Activity (%) 10 mg/kg po / Activity (%) 10 mg/kg SSV po / Activity (%) 10 mg/kg sc: percent reduction in parasitemia on day 3; for Survival (days) 10 mg/kg SSV po: single 10 mg/kg po in SSV; for Activity (%) 10 mg/kg SSV po: single 10 mg/kg po in standard suspending vehicle (SSV) on day 1 post-infection; for Survival (days) 10 mg/kg sc: single 10 mg/kg sc in 3% ethanol and 7% Tween 80; for Activity (%) 10 mg/kg sc: single 10 mg/kg sc in 3% ethanol and 7% Tween 80 on day 1 post-infection
[4] = K1, 72 h, read-out: IC50 (ng/ml) K1, chloroquine-resistant K1 strain, 72 h incubation
[5] = NF54, 72 h, read-out: IC50 (ng/ml) NF54, chloroquine-sensitive NF54 strain, 72 h incubation
[6] = chloroquine-resistant K1 strain, 72 h incubation, read-out: IC50 (ng/ml) K1
[7] = chloroquine-sensitive NF54 strain, 72 h incubation, read-out: IC50 (ng/ml) NF54

Row | SMILES | IC50 [1, 4] [ng/mL] | IC50 [2, 5] [ng/mL] | Survival (days) 10 mg/kg po [3] [days] | Activity (%) 10 mg/kg po [3] [%] | Survival (days) 10 mg/kg SSV po [3] | Activity (%) 10 mg/kg SSV po [3] | Survival (days) 10 mg/kg sc [3] [days] | Activity (%) 10 mg/kg sc [3] [%] | IC50 [1, 6] [ng/mL] | IC50 [2, 7] [ng/mL]
1 | c1ccc2c(c1)OCCC21OOC2(O1)C1CC3CC(C1)CC2C3 (stereo not drawn) [OZ134, Adamantane-2-spiro-3′-1′,2′,4′-trioxolane-5′-spiro-4″-2″, 3″-dihydro-4″H-1″-benzopyran] | 0.88 (≈ 2.8 nM) | 1.1 (≈ 3.5 nM) | 6.3 | 72 | 6.0 days | 27% | 15.3 | 99.95 |  | 
2 | O=C(C[C@H]1CC[C@]2(CC1)OOC1(O2)C2CC3CC(C2)CC1C3)N1CCN(c2ccccc2)CC1 (stereo partly drawn) [OZ244] |  |  | 5.7 | 6 | 5.3 days | 0% | 6.3 | 18 | 4 (≈ 8.57 nM) | 4.2 (≈ 9 nM)
3 | FC1(c2ccccc2)CCC2(CC1)OOC1(O2)C2CC3CC(C2)CC1C3 (stereo not drawn) [OZ274] | 5.1 (≈ 14.2 nM) | 5.7 (≈ 15.9 nM) |  |  | 7.0/ND days | 11/ND % |  |  |  | 
4 | O=C(O)c1ccc(OC[C@H]2CC[C@]3(CC2)OOC2(O3)C3CC4CC(C3)CC2C4)cc1 (stereo partly drawn) [OZ176] | 25 (≈ 60.3 nM) | 35 (≈ 84.4 nM) | 7.0 | 11 | 7.7 days | 18% | 7.0 | 24 |  | 
5 | CCS(=O)(=O)CCN1CCC2(CC1)OOC1(O2)C2CC3CC(C2)CC1C3 (stereo not drawn) [OZ200, Adamantane-2-spiro-3′-8′-[2′-(ethylsulfonyl)ethyl]-1′,2′,4′-trioxa-8′-azaspiro[4.5]decane] | 1 (≈ 2.59 nM) | 2.9 (≈ 7.52 nM) | 7.0 | 81 | 7.3 days | 78% | 8.0 | 92 |  | 
6 | COC(=O)c1ncn(C[C@H]2CC[C@]3(CC2)OOC2(O3)C3CC4CC(C3)CC2C4)n1 (stereo partly drawn) [OZ234] | 3 (≈ 7.44 nM) | 3.6 (≈ 8.92 nM) | 6.0 | 12 | 6.0 days | 0% | 6.3 | 0 |  | 
7 | OC1(Cc2ccccn2)CCC2(CC1)OOC1(O2)C2CC3CC(C2)CC1C3 (stereo not drawn) [OZ275] | 0.66 (≈ 1.78 nM) | 0.74 (≈ 1.99 nM) |  |  | 7.3/ND days | 68/ND % |  |  |  | 
8 | CC(C)(C)NC(=O)N1CCC2(CC1)OOC1(O2)C2CC3CC(C2)CC1C3 (stereo not drawn) [OZ143, Adamantane-2-spiro-3′-8′-(t-butylaminocarbonyl)-1′,2′,4′-trioxa-8′-azaspiro[4.5]decane] | 0.98 (≈ 2.69 nM) | 1.8 (≈ 4.94 nM) | 6.7 | 48 | 6.7 days | 44% | 9.7 | 99.85 |  | 
9 | O=C(O)CCC(=O)N[C@H]1CC[C@]2(CC1)OOC1(O2)C2CC3CC(C2)CC1C3 (stereo partly drawn) [OZ196] | > 10 | > 10 | 6.0 | 10 | 5.3 days | 0% | 5.7 | 17 |  | 
10 | CCOC(=O)c1ccc(C2(c3ccc(C(=O)OCC)cc3)OOC3(O2)C2CC4CC(C2)CC3C4)cc1 (stereo not drawn) [OZ125, Adamantane-2-spiro-3′-5′,5′-bis[4′-(ethoxycarbonyl)phenyl]-1′,2′,4′-trioxolane] |  |  | 5.3 | 8 | 5.7 days | 0% | 6.0 | 0 | 68 (≈ 138 nM) | > 100
